The subject of experiment [1] is mammalian polyamine carrier. As to the kind of experiment: Determination of polyamine uptake activity: inhibition of diamine and polyamine transport in T-47D cells. The format is cell-based, human. The settings on record: for Ki: mean±SD; for Km: substrate itself. On the procedure: The rate of diamine and polyamine transport was determined in T-47D and ZR-75-1 cells incubated in serum-free RPMI 1640 medium as previously described (U.S. Pat. No. 6,083,496; Covassin et al. (1999) Bioorg. Med. Chem. Lett. 9, 1709-1714), using 20 μM [^3H]putrescine (179 Ci/mol), 5 μM [^3H]spermidine (246 Ci/mol) and 3 μM [^14C]spermine (300-400 mCi/mol) respectively, as substrates for a 20-min assay period. Uptake activity was expressed per amount of DNA as fluorometrically determined using 3,5-diaminobenzoic acid (Simard et al. (1990) Endocrinology 126, 3223-3231). Kinetic parameters of polyamine transport inhibition for the transport antagonists were determined by Lineweaver-Burke analysis of uptake activity in the presence of 0.1 μM [^3H]putrescine, 0.03 μM [^3H]spermidine, and 0.01 μM [^14C]spermine plus increasing concentrations of nonradioactive substrate. For competitive inhibitors, Ki values were estimated by iterative curve fitting for sigmoidal equations describing transport rates in the presence of increasing concentrations of antagonist, using the Cheng-Prusoff equation for competitive inhibition (U.S. Pat. No. 6,083,496).
The ability of BSD and BNSD compounds to inhibit uptake of the main natural substrates of the mammalian polyamine carrier, namely putrescine, spermidine and spermine, was evaluated using T-47D human breast cancer cells (Table 1).
Data are presented as the mean±SD of at least two independent determinations of IC50 values, each based on triplicate determinations of uptake velocity at increasing inhibitor concentrations.
The potency of the polyamines and their xylylated dimers as competitive inhibitors of spermidine transport was evaluated in the T-47D human breast cancer cell line (Table 2).

For experiment [2], the system named is MDA-MB-231 human breast cancer xenograft. As to the kind of experiment: MDA-MB-231 human breast cancer xenograft in nude mice. The settings on record: 39 d. The format is in vivo, immunodeficient CD-1 mice. On the procedure:
In particular, the mice have been treated with the following compounds: BNSD-X (1% w/v) (●), 0.3 (w/v) DFMO (□), 0.3% DFMO+BNSD-X (▪), 1% (w/v) DFMO (Δ), or 1% DFMO+BNSD-X (▴). Drugs were dissolved in drinking water which was given ad libitum to the animals. Control mice (∘) received distilled water only;
In particular, the mice have been treated with the following compounds: BNSD-X (1% w/v) (●), 0.3 (w/v) DFMO (□), 0.3% DFMO+BNSD-X (▪), 1% (w/v) DFMO (Δ), or 1% DFMO+BNSD-X (▴). Drugs were dissolved in drinking water which was given ad libitum to the animals. Control mice (∘) received distilled water only; and
In particular, these compounds are BNSD-X (1% w/v), 0.3 (w/v) DFMO, 0.3% DFMO+BNSD-X, 1% (w/v) DFMO, or 1% DFMO+BNSD-X Drugs were dissolved in drinking water which was given ad libitum to the animals. Control mice received distilled water only.
For human xenograft experiments, athymic CD-1 mice were inoculated with 5×10^6 MDA-MB-231 human breast cancer cells (grown in tissue culture incubators to mid-exponential phase) in both sides of the inguinal mammary fat pad. After ˜2 weeks, when the tumor had reached a diameter ˜4 mm (as measured with a caliper), control mice were paired to treated ones in accordance with tumor volume (time zero). Animals were allowed free access to water containing 0, 0.3 or 1% DFMO (w/v), plus or minus 1% (w/v) BNSD-X (7 mice/experimental group). Tumor volume (V) was measured twice weekly with a caliper in 2 dimensions using the approximation V=(L×w^2)/2, where L is the length and w is the width of the xenograft (Bandyopadhyay et al., (2002) Cancer Res. 62:4690-4695). Animals were sacrificed after 39 d (i.e. when tumor size in control mice had reached about 500 mm^3). Mammary tumors were be excised and weighed.
The efficacy of BNSD-X as a chemotherapeutic agent was assessed in the MDA-MB-231 model of human breast cancer xenograft in the nude mouse, a model which is known to be sensitive to polyamine depletion by DFMO (Weeks et al., (2000) Exp Cell Res. 261:293-302). For that purpose, MDA-MB-231 cells were injected in the left and right mammary fat pads of immunodeficient CD-1 mice. Mice were then allowed to drink either BNSD-X at the optimal concentration (1%, w/v), as well as DFMO at either 0.3% or 1% (w/v) plus or minus 1% BNSD-X for 39 days before sacrificing the animals and measuring total final tumor mass (FIG. 12-14). The BNSD-X solution alone or with 0.3% DFMO led to a slight (˜7%) reduction of body weight, which was attenuated by the addition of 1% DFMO (FIG. 13) However, this effect of body weight could largely be accounted on the decreased tumor burden in the BNSD-X treated animals (FIG. 14). […]
For orientation: Xenograft models place foreign cells or tissue in a host animal.

In experiment [3] the test system is CHO-K1 cells. Nature of the experiment: Determination of intracellular polyamine contents in CHO-K1 cells. The format is cell-based, Chinese hamster. On the procedure:
At the indicated time, cells were harvested for the determination of putrescine (A), spermidine (B) and spermine contents (C). Data are presented as the mean±SD for triplicate cultures from one representative experiment; […] At the indicated time intervals, medium was removed, cell monolayers were rinsed twice: with 10 ml of ice-cold Ca^2+/Mg^2+-free phosphate-buffered saline (PBS) (2.7 mM KCl, 1.5 mM KH2PO4, 8.1 mM Na2HPO4, 137 mM NaCl), and cells were harvested by low-speed centrifugation (2400 g for 5 min at 4° C.). […] Polyamine content was then determined by ion-pair reverse phase HPLC with fluorometric detection after post-column derivatization with o-phthaldialdehyde as described (U.S. Pat. No. 6,083,496). […] Pat. No. 6,083,496).

Where [4] appears, read: T-47D breast cancer cells, read-out: Ki, inhibition of [3H]putrescine uptake.
Setting [5] is: T-47D breast cancer cells, read-out: Ki, inhibition of [3H]spermidine uptake.
Setting [6] is: T-47D breast cancer cells, read-out: Ki, inhibition of [14C]spermine uptake.
[7] abbreviates: T-47D human breast cancer cells, calculated from IC50, read-out: Ki for the inhibition of spermidine transport (Table 2).

Data on 23 molecules can be found in patent publication US7425579B2, “Methods for inhibiting activity of polyamine transporters” (Universite Laval, priority 1998, dated 2008).

Read-outs that look alike come from different tables or passages of the source.

On to `NCCCNCCCC(NCCCN)C(=O)NCCSSCCNC(=O)C(CCCNCCCN)NCCCN` (stereo not shown) [DESC, 2,2′-dithiobis(N-ethyl-spermine-5-carboxamide), reference compound], for which the values for the inhibition constant (Ki) in experiment [1] (setting [4]), in experiment [1] (setting [5]) and in experiment [1] (setting [6]) were 3100 ± 400 nM, 12600 ± 1400 nM and 15900 ± 4000 nM, respectively.
Regarding `NCCCCN` [Putrescine, 1,4-diaminobutane, reference compound], the Km in experiment [1] (T-47D breast cancer cells, read-out: Km for [3H]putrescine uptake) worked out at 7.4 ± 1.1 µM. For the same molecule, the Ki in experiment [1] (setting [7]) was above 500000 nM.
On to `NCCCCN(CCCN)CCCCCCN(CCCN)CCCCN` [22b], for which the Ki in experiment [1] (setting [4]) was 910 ± 110 nM; in experiment [1] (setting [5]) it was 690 ± 160 nM; in experiment [1] (setting [6]) it was 6300 ± 800 nM.
Regarding `NCCCN(CCCN)CCN(CCCN)CCCN` [18a], the Ki was 1200 ± 200 nM in experiment [1] (setting [4]), 17300 ± 1400 nM in experiment [1] (setting [5]) and 20400 ± 6900 nM in experiment [1] (setting [6]).
On to `NCCCN(CCCN)CCCCCCN(CCCN)CCCN` [22a], for which the Ki in experiment [1] (setting [4]) was determined as 720 ± 180 nM; in experiment [1] (setting [5]), 2400 ± 300 nM; in experiment [1] (setting [6]), 820 ± 100 nM.
`NCCCN(CCCN)Cc1cccc(CN(CCCN)CCCN)c1` [27a]: the Ki in experiment [1] (setting [4]) amounted to 640 ± 80 nM; in experiment [1] (setting [5]) it was 3000 ± 500 nM; in experiment [1] (setting [6]), 5700 ± 1300 nM.
Regarding `NCCCCN(CCCN)CCCCCCCCN(CCCN)CCCCN` [23b], the results for the Ki in experiment [1] (setting [4]), in experiment [1] (setting [5]) and in experiment [1] (setting [6]) were 440 ± 70 nM, 3000 ± 200 nM and 3600 ± 700 nM, respectively.
Consider `NCCCN(C/C=C/CN(CCCN)CCCN)CCCN` [25a], for which the inhibition constant Ki in experiment [1] (setting [4]) came to 100 ± 10 nM; in experiment [1] (setting [5]), 1800 ± 100 nM; in experiment [1] (setting [6]), 1500 ± 100 nM.
As to `NCCCN(CCCN)CCCCCN(CCCN)CCCN` [21a], the results for the Ki in experiment [1] (setting [4]), in experiment [1] (setting [5]) and in experiment [1] (setting [6]) were 540 ± 110 nM, 3100 ± 500 nM and 2600 ± 700 nM, respectively.
`NCCCCN(CCCN)Cc1cccc(CN(CCCN)CCCCN)c1` [27b]: the Ki in experiment [1] (setting [4]) was determined as 190 ± 50 nM; in experiment [1] (setting [5]), 1600 ± 100 nM; in experiment [1] (setting [6]) it was 2400 ± 300 nM.
As to `NCCCNCCCCNCCCN` [Spermine, reference compound], the Ki in experiment [1] (setting [4]) was 650 ± 120 nM; in experiment [1] (setting [5]), 920 ± 80 nM; in experiment [1] (setting [7]), 2100 ± 200 nM. In addition, the Km in experiment [1] (T-47D breast cancer cells, read-out: Km for [14C]spermine uptake) came out at 2.7 ± 0.4 µM.
Consider `NCCCCN(CCCN)CCN(CCCN)CCCCN` [18b], for which the Ki in experiment [1] (setting [4]) came to 650 ± 70 nM; in experiment [1] (setting [5]), 3000 ± 500 nM; in experiment [1] (setting [6]), 5900 ± 1100 nM.
In the case of `NCCCN(CC#CCN(CCCN)CCCN)CCCN` [26a], the Ki was determined as 2600 ± 400 nM in experiment [1] (setting [4]), 25600 ± 4000 nM in experiment [1] (setting [5]) and 12800 ± 2200 nM in experiment [1] (setting [6]).
Consider `NCCCN(CCCN)CCCCN(CCCN)CCCN` [20a], for which the inhibitory constant (Ki) in experiment [1] (setting [4]) was found to be 720 ± 200 nM; in experiment [1] (setting [5]), 4900 ± 100 nM; in experiment [1] (setting [6]), 4300 ± 700 nM.
With `NCCCCN(CCCN)CCCCN(CCCN)CCCCN` [20b], the values for the Ki in experiment [1] (setting [4]), in experiment [1] (setting [5]) and in experiment [1] (setting [6]) were 520 ± 60 nM, 2400 ± 400 nM and 6200 ± 600 nM, respectively.
For `NCCCCN(CCCN)CCCCCN(CCCN)CCCCN` [21b], the Ki worked out at 570 ± 100 nM in experiment [1] (setting [4]), 830 ± 80 nM in experiment [1] (setting [5]) and 8000 ± 1100 nM in experiment [1] (setting [6]).
On the same counts, the results for `NCCCCN(CC#CCN(CCCN)CCCCN)CCCN` [26b] are 1900 ± 400 nM, 16900 ± 2000 nM and 27700 ± 3200 nM.
For the molecule `NCCC[C@](N)(C(=O)O)C(F)F` [DFMO, α-difluoromethylornithine, reference compound], the “reduction of tumor burden” value in experiment [2] (DFMO alone (0.3%)) is recorded as 50±6%. In addition, the “growth inhibition (tumor)” value in experiment [2] (DFMO alone (1%)) is reported as 73±7%. Further, in experiment [3] (after a 24-h lag period, up to 4 days), the “decrease of the intracellular spermidine pool by DFMO alone” value came to 80%. In addition, in experiment [3] (single agent), the “effect on intracellular putrescine content” value is given as “rapidly led to putrescine depletion”. Further, the “effect on intracellular spermine content” value in experiment [3] (up to 4 days) is “little effect on spermine content”.
Take `NCCCN(CCCN)CCCCCCCCCCN(CCCN)CCCN` [24a]: the results for the Ki in experiment [1] (setting [4]), in experiment [1] (setting [5]) and in experiment [1] (setting [6]) were 1600 ± 400 nM, 1500 ± 200 nM and 2400 ± 700 nM, respectively.
For the molecule `NCCCN(CCCN)CCCCCCCCN(CCCN)CCCN` [23a], the Ki in experiment [1] (setting [4]) is 660 ± 60 nM; in experiment [1] (setting [5]), 7500 ± 1600 nM; in experiment [1] (setting [6]) it was 7000 ± 1000 nM.
Take `NCCCCN(CCCN)CCCCCCCCCCN(CCCN)CCCCN` [24b]: the Ki in experiment [1] (setting [4]) turned out to be 140 ± 10 nM; in experiment [1] (setting [5]), 1200 ± 200 nM; in experiment [1] (setting [6]), 1900 ± 300 nM.
Take `NCCCNCCCCN(CCCN)Cc1ccc(CN(CCCN)CCCCNCCCN)cc1` [BSM-X]: the “fold lower apparent Ki for spermidine uptake inhibition relative to the spermine monomer” value in experiment [1] (T-47D cells) was 2 fold. In experiment [1] (setting [7]), the Ki is 1100 ± 100 nM.
As for `NCCCCN(C/C=C/CN(CCCN)CCCCN)CCCN` [25b], the Ki in experiment [1] (setting [4]) was found to be 270 ± 40 nM; in experiment [1] (setting [5]), 2000 ± 500 nM; in experiment [1] (setting [6]), 1600 ± 200 nM.

Usually Ki stands for the dissociation constant of the complex between target and ligand, obtained from inhibition or displacement. One may read the Km as the concentration of substrate that gives half-maximal velocity.
